Laboratory results taken from patent publication US8192962B2, “Processes for detecting toxic substances” (Daikin Industries, Ltd., priority 2001, dated 2012).

Tested on: Mitochondria-located protein genes
Assay: DNA chip mRNA expression in yeast, mitochondria-located protein genes (Table 2)
Assay type: cell-based, Saccharomyces cerevisiae S288C
Settings: cells incubated two hours with the chemical substance
Summary of the method: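 Ratios compare mRNA levels in stressed and control S. cerevisiae. Each toxicant was applied for two hours to log-phase cultures at 25° C. at a sub-lethal, growth-inhibiting level; fluorescent cDNA (Cy3- or Cy5-dUTP) was hybridized to a genome-wide yeast chip for over 12 h at 65° C.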

For `CCCCCCCCCCCCc1ccc(S(=O)(=O)[O-])cc1.[Na+]` [(17), sodium dodecylbenzosulfonate], the “The level of expressed mRNA in the presence of chemical substance/The level of expressed mRNA in the absence of chemical substance” value (yeast gene YAL039C) was 1.4, the “The level of expressed mRNA in the presence of chemical substance/The level of expressed mRNA in the absence of chemical substance” value (yeast gene YBL022C) was 0.9 and the “The level of expressed mRNA in the presence of chemical substance/The level of expressed mRNA in the absence of chemical substance” value (yeast gene YBL030C) was 1.0. For the same compound, the “The level of expressed mRNA in the presence of chemical substance/The level of expressed mRNA in the absence of chemical substance” value (yeast gene YBL038W) was 1.2, the “The level of expressed mRNA in the presence of chemical substance/The level of expressed mRNA in the absence of chemical substance” value (yeast gene YBL099W) was 0.7 and the “The level of expressed mRNA in the presence of chemical substance/The level of expressed mRNA in the absence of chemical substance” value (yeast gene YBR003W) was 1.1. The “The level of expressed mRNA in the presence of chemical substance/The level of expressed mRNA in the absence of chemical substance” value (yeast gene YBR044C) was 0.9, the “The level of expressed mRNA in the presence of chemical substance/The level of expressed mRNA in the absence of chemical substance” value (yeast gene YBR091C) was 1.0 and the “The level of expressed mRNA in the presence of chemical substance/The level of expressed mRNA in the absence of chemical substance” value (yeast gene YBR122C) was 0.9. The “The level of expressed mRNA in the presence of chemical substance/The level of expressed mRNA in the absence of chemical substance” value (yeast gene YBR185C) was 0.8, the “The level of expressed mRNA in the presence of chemical substance/The level of expressed mRNA in the absence of chemical substance” value (yeast gene YBR221C) was 0.9 and the “The level of expressed mRNA in the presence of chemical substance/The level of expressed mRNA in the absence of chemical substance” value (yeast gene YBR251W) was 0.9. The “The level of expressed mRNA in the presence of chemical substance/The level of expressed mRNA in the absence of chemical substance” value (yeast gene YBR282W) was 0.9, the “The level of expressed mRNA in the presence of chemical substance/The level of expressed mRNA in the absence of chemical substance” value (yeast gene YCL057W) was 0.9 and the “The level of expressed mRNA in the presence of chemical substance/The level of expressed mRNA in the absence of chemical substance” value (yeast gene YCR046C) was 1.3. The “The level of expressed mRNA in the presence of chemical substance/The level of expressed mRNA in the absence of chemical substance” value (yeast gene YCR083W) was 1.3, the “The level of expressed mRNA in the presence of chemical substance/The level of expressed mRNA in the absence of chemical substance” value (yeast gene YDL067C) was 1.2 and the “The level of expressed mRNA in the presence of chemical substance/The level of expressed mRNA in the absence of chemical substance” value (yeast gene YDL181W) was 1.5. The “The level of expressed mRNA in the presence of chemical substance/The level of expressed mRNA in the absence of chemical substance” value (yeast gene YDL198C) was 1.5, the “The level of expressed mRNA in the presence of chemical substance/The level of expressed mRNA in the absence of chemical substance” value (yeast gene YDR079W) was 1.1 and the “The level of expressed mRNA in the presence of chemical substance/The level of expressed mRNA in the absence of chemical substance” value (yeast gene YDR178W) was 1.2. For the same compound, the “The level of expressed mRNA in the presence of chemical substance/The level of expressed mRNA in the absence of chemical substance” value (yeast gene YDR231C) was 1.2, the “The level of expressed mRNA in the presence of chemical substance/The level of expressed mRNA in the absence of chemical substance” value (yeast gene YDR258C) was 1.3 and the “The level of expressed mRNA in the presence of chemical substance/The level of expressed mRNA in the absence of chemical substance” value (yeast gene YDR298C) was 1.1. The “The level of expressed mRNA in the presence of chemical substance/The level of expressed mRNA in the absence of chemical substance” value (yeast gene YDR347W) was 0.9, the “The level of expressed mRNA in the presence of chemical substance/The level of expressed mRNA in the absence of chemical substance” value (yeast gene YDR377W) was 1.2 and the “The level of expressed mRNA in the presence of chemical substance/The level of expressed mRNA in the absence of chemical substance” value (yeast gene YDR529C) was 1.0. The “The level of expressed mRNA in the presence of chemical substance/The level of expressed mRNA in the absence of chemical substance” value (yeast gene YEL024W) was 1.1, the “The level of expressed mRNA in the presence of chemical substance/The level of expressed mRNA in the absence of chemical substance” value (yeast gene YEL039C) was 0.7 and the “The level of expressed mRNA in the presence of chemical substance/The level of expressed mRNA in the absence of chemical substance” value (yeast gene YER178W) was 1.1. The “The level of expressed mRNA in the presence of chemical substance/The level of expressed mRNA in the absence of chemical substance” value (yeast gene YFL016C) was 1.2, the “The level of expressed mRNA in the presence of chemical substance/The level of expressed mRNA in the absence of chemical substance” value (yeast gene YGL018C) was 0.8 and the “The level of expressed mRNA in the presence of chemical substance/The level of expressed mRNA in the absence of chemical substance” value (yeast gene YGL187C) was 0.9. For the same compound, the “The level of expressed mRNA in the presence of chemical substance/The level of expressed mRNA in the absence of chemical substance” value (yeast gene YGL191W) was 1.2, the “The level of expressed mRNA in the presence of chemical substance/The level of expressed mRNA in the absence of chemical substance” value (yeast gene YGR008C) was 1.7 and the “The level of expressed mRNA in the presence of chemical substance/The level of expressed mRNA in the absence of chemical substance” value (yeast gene YGR028W) was 1.5. The “The level of expressed mRNA in the presence of chemical substance/The level of expressed mRNA in the absence of chemical substance” value (yeast gene YGR062C) was 0.9, the “The level of expressed mRNA in the presence of chemical substance/The level of expressed mRNA in the absence of chemical substance” value (yeast gene YGR076C) was 0.9 and the “The level of expressed mRNA in the presence of chemical substance/The level of expressed mRNA in the absence of chemical substance” value (yeast gene YGR082W) was 0.9. The “The level of expressed mRNA in the presence of chemical substance/The level of expressed mRNA in the absence of chemical substance” value (yeast gene YGR174C) was 1.3, the “The level of expressed mRNA in the presence of chemical substance/The level of expressed mRNA in the absence of chemical substance” value (yeast gene YGR244C) was 1.9 and the “The level of expressed mRNA in the presence of chemical substance/The level of expressed mRNA in the absence of chemical substance” value (yeast gene YHR008C) was 0.9. For the same compound, the “The level of expressed mRNA in the presence of chemical substance/The level of expressed mRNA in the absence of chemical substance” value (yeast gene YIL155C) was 1.1, the “The level of expressed mRNA in the presence of chemical substance/The level of expressed mRNA in the absence of chemical substance” value (yeast gene YJL096W) was 1.1 and the “The level of expressed mRNA in the presence of chemical substance/The level of expressed mRNA in the absence of chemical substance” value (yeast gene YJL102W) was 1.0. For the same compound, the “The level of expressed mRNA in the presence of chemical substance/The level of expressed mRNA in the absence of chemical substance” value (yeast gene YJL133W) was 0.8, the “The level of expressed mRNA in the presence of chemical substance/The level of expressed mRNA in the absence of chemical substance” value (yeast gene YJL166W) was 1.7 and the “The level of expressed mRNA in the presence of chemical substance/The level of expressed mRNA in the absence of chemical substance” value (yeast gene YJL180C) was 0.9. The “The level of expressed mRNA in the presence of chemical substance/The level of expressed mRNA in the absence of chemical substance” value (yeast gene YJR045C) was 0.7 and the “The level of expressed mRNA in the presence of chemical substance/The level of expressed mRNA in the absence of chemical substance” value (yeast gene YJR077C) was 1.0.
